According to patent US20160257651A1, “NOVEL COMPOUND WITH ANTIBACTERIAL ACTIVITY” (priority 2013, published 2016):
In brackets after ≈: the same amount, converted by molar mass. Several values for one entry are separate records, joined by “and”; a condition that tells them apart may be missing. Equal values may be shown once.

Assays:
GyrA (wt) + GyrB (wt) = biological target: T1, GyrA (wt) + GyrB (wt) (Staphylococcus aureus, UniProt P20831); assay: DNA cleavage assay using DNA gyrase; type: biochemical; details: for Ratio of cleaved DNA (%) / Ratio of substrate plasmid DNA (%): GyrA (wt) + GyrB (wt)
T1 construct: made in house; host or cells: E. coli BL21(DE3)
Description: (§1) To the culture medium of the resulting transformed Escherichia coli 1 mM isopropyl-8-thiogalactopyranoside (produced by Wako Pure Chemical Industries) was added to induce expression of maltose-binding GyrA(wt), maltose-binding GyrB(wt), or maltose-binding mutant GyrA(S84L), and the bacterium was cultured overnight at 25° C.
(§2) Then, each disrupted cell suspension was added to a column filled with an amylose resin covalently bound with maltose (produced by Novagen). A buffer (20 mM Tris-HCl (pH 8.0), 200 mM sodium chloride, 1 mM EDTA) containing 10 mM maltose was added to the column to elute the maltose-binding GyrA(wt), maltose-binding GyrB(wt), and maltose-binding mutant GyrA(S84L).
To each eluate, 4 units/1 mL of the eluate of protease (Factor Xa, produced by Amersham) was added, and the mixture was left standing at 25° C. for 3 hours and 30 minutes to cleave the maltose-binding proteins, GyrA(wt), GyrB(wt), and mutant GyrA(S84L), from the maltose-binding GyrA(wt), maltose-binding GyrB(wt), and maltose-binding mutant GyrA(S84L).
Then, GyrA(wt), GyrB(wt), and mutant GyrA(S84L) were concentrated by using an ultrafiltration unit (YM-50 Filter Unit, produced by Millipore).
The concentrated GyrA(wt), GyrB(wt), and mutant GyrA(S84L) were each suspended in a buffer (35 mM Tris-HCl (pH 7.5), 24 mM potassium chloride, 6 mM magnesium chloride, 1.8 mM spermidine, 0.36 mg/mL bovine serum albumin, 5 mM DTT, 50 volume % glycerol) at a concentration of 1 μg/μL for GyrA(wt), 2 μg/μL for GyrB(wt), or 1 μg/μL for mutant GyrA(S84L).
Levofloxacin was added at a final concentration of […] as control for an index of the enzymatic activity.
The reaction solution was left standing at 25° C. for 30 minutes to allow the reaction. Subsequently, a 6 mass % solution of sodium laurylsulfate (2 μL) and a 5 mg/mL solution of Proteinase K (2 μL, produced by Wako Pure Chemical Industries) were added to the reaction solution, and the mixture was left standing at 37° C. for 30 minutes to inactivate GyrA(wt) and GyrB(wt) bound to DNA.
Then, the whole volume of the reaction solution treated with Proteinase K was subjected to electrophoresis on 1 mass % agarose gel to visualize the resultants of the reaction.
(§3) Then, the total value of the intensities of the bands of “S”, “L”, and “N” was calculated for each concentration, and the result was used as “total DNA amount” (equation 1 mentioned below). Further, the total value of the intensities of the bands of “L” and “N” was also calculated, and the result was used as “amount of cleaved DNA” (equation 2 mentioned below). Then, the ratio (%) of the amount of the substrate plasmid DNA to the total DNA amount was calculated in accordance with the following equation 3, and the ratio (%) of the amount of the cleaved DNA to the total DNA amount was calculated in accordance with the following equation 4.
The DNA cleavage assay is a method for evaluating an inhibitory action of an agent for DNA gyrase by detecting whether or not DNAs cleaved by DNA gyrase are recombined.

[1] = test system: E. coli strain 1708 plus PABN; assay: Antibacterial activity against Escherichia coli in combination with efflux pump inhibitor PAβN; details: E coli plus PABN 40 mg/L, strain 1708, Quinolone Res
Description: (§4) The numerical values in the tables indicate MIC (mg/L), Res means resistant bacterium, and Sus means susceptible bacterium.
(§5) Antibacterial activities against Escherichia coli of the compounds shown Table 19 were examined by the following method.
(§6) After completion of the culture, the cells were suspended in fresh TBS to prepare a cell suspension showing an absorbance of 0.3 at 578 nm.

E. coli strain 1708 = assay: Antibacterial activity against Escherichia coli
Description: as §4, §5, §6

E. coli strain 1709 = assay: Antibacterial activity against Escherichia coli
Description: as §4, §5, §6

GyrA (S84L) + GyrB (wt) = biological target: T2, GyrA (S84L) + GyrB (wt) (Staphylococcus aureus, UniProt P20831, S84L); assay: DNA cleavage assay using DNA gyrase; type: biochemical
T2 construct: made in house; host or cells: E. coli BL21(DE3)
Description: as §1
as §2, with “GyrA(S84L). […]” for “GyrA(S84L).”
as §3

[2] = test system: E. coli strain 1709 plus PABN; assay: Antibacterial activity against Escherichia coli in combination with efflux pump inhibitor PAβN; details: E coli plus PABN 40 mg/L, strain 1709, Quinolone Sus
Description: as §4, §5, §6

In the case of `C[C@H]1COc2c(N3CCN(C)CC3)c(F)cc3c(=O)c(C(=O)O)cn1c23` [LVX, levofloxacin], the “Ratio of cleaved DNA (%)” value (GyrA (wt) + GyrB (wt); concentration 16 μg/mL) is reported as 78% and the “Ratio of substrate plasmid DNA (%)” value (GyrA (wt) + GyrB (wt); concentration 16 μg/mL) is reported as 22%.
`O=c1cc(CO)c2cc(F)c(-c3ccc(O)cc3)cc2n1C1CC1` [J-131CP, 1-cyclopropyl-6-fluoro-4-(hydroxymethyl)-7-(4-hydroxyphenyl)-1,2-dihydroquinolin-2-one] was tested, and the MIC [1] was 0.25 µg/mL, the MIC (E. coli strain 1708) was 128 µg/mL (≈ 393 µM) and the “Ratio of cleaved DNA (%)” value (GyrA (wt) + GyrB (wt); concentration 0.125 μg/mL) was 12%. The “Ratio of substrate plasmid DNA (%)” value (GyrA (wt) + GyrB (wt); concentration 0.125 μg/mL) was 88%, the “Ratio of cleaved DNA (%)” value (GyrA (wt) + GyrB (wt); concentration 0.25 μg/mL) was 19% and the “Ratio of substrate plasmid DNA (%)” value (GyrA (wt) + GyrB (wt); concentration 0.25 μg/mL) was 81%. The “Ratio of cleaved DNA (%)” value (GyrA (wt) + GyrB (wt); concentration 0.5 μg/mL) was 23%, the “Ratio of substrate plasmid DNA (%)” value (GyrA (wt) + GyrB (wt); concentration 0.5 μg/mL) was 77% and the “Ratio of cleaved DNA (%)” value (GyrA (wt) + GyrB (wt); concentration 1 μg/mL) was 47%. The “Ratio of substrate plasmid DNA (%)” value (GyrA (wt) + GyrB (wt); concentration 1 μg/mL) was 53%, the “Ratio of cleaved DNA (%)” value (GyrA (wt) + GyrB (wt); concentration 2 μg/mL) was 77% and the “Ratio of substrate plasmid DNA (%)” value (GyrA (wt) + GyrB (wt); concentration 2 μg/mL) was 23%. For the same compound, the “Ratio of cleaved DNA (%)” value (GyrA (wt) + GyrB (wt); concentration 4 μg/mL) was 81%, the “Ratio of substrate plasmid DNA (%)” value (GyrA (wt) + GyrB (wt); concentration 4 μg/mL) was 19% and the IC50 (GyrA (wt) + GyrB (wt); IC50, GyrA(wt) and GyrB(wt)) was 6.15 µM and 6.2 µM. For the same compound, the MIC (E. coli strain 1709) was 8 µg/mL (≈ 24.6 µM), the IC50 (GyrA (S84L) + GyrB (wt); IC50, GyrA (S84L) + GyrB (wt), calculated from the ratio of cleaved DNA) was 3.07 µM and the IC50 (GyrA (S84L) + GyrB (wt); IC50, GyrA(S84L) and GyrB(wt)) was 3.1 µM. For the same compound, the MIC [2] was “≦0.06 mg/L”.
